Test results: ChEMBL document CHEMBL1201862, “PubChem BioAssay data set” (2004)
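All cell lines were grown in 96-well plates and treated with compound for 48 hours. GI50 = concentration required for 50% inhibition of growth.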 The source made the active and inactive calls. No stated cut-off is given here; in the data, active = GI50 up to about 1.1 µM and inactive = higher.

What was measured:
Assay in all cases: inhibition of tumour cell growth, NCI panel, 48 h
[1] = tested on: UO-31
[2] = tested on: IGROV-1
[3] = tested on: HCT-15
[4] = tested on: LOX IMVI
[5] = tested on: M14
[6] = tested on: MDA-N
[7] = tested on: Malme-3M
[8] = tested on: HOP-92
[9] = tested on: MDA-MB-435
[10] = tested on: SK-MEL-28
[11] = tested on: KM12
[12] = tested on: SF-539
[13] = tested on: SN12C
[14] = tested on: SK-MEL-2
[15] = tested on: UACC-257
[16] = tested on: ACHN
[17] = tested on: HT-29
[18] = tested on: NCI-H23
[19] = tested on: SF-268

Compound | GI50 [1] | GI50 [2] | GI50 [3] [µM] | GI50 [4] | GI50 [5] | GI50 [6] | GI50 [7] | GI50 [8] | GI50 [9] | GI50 [10] | GI50 [11] | GI50 [12] | GI50 [13] | GI50 [14] | GI50 [15] | GI50 [16] | GI50 [17] | GI50 [18] | GI50 [19]
OC(c1ccc2c(c1)OCO2)c1ccc2c(c1)OCO2 | 75 µM (inactive) | > 100 µM (inactive) | > 100 | > 100 µM (inactive) | > 100 µM (inactive) | > 100 µM (inactive) | > 100 µM (inactive) | > 100 µM (inactive) | > 100 µM (inactive) | > 100 µM (inactive) | > 100 µM (inactive) | > 100 µM (inactive) | > 100 µM (inactive) | > 100 µM (inactive) | > 100 µM (inactive) | > 100 µM (inactive) | > 100 µM (inactive) | > 100 µM (inactive) | 53.6 µM (inactive)
CC(C)(C)c1ccc(OCC(=O)O)c(Cl)c1 | > 100 µM (inactive) | > 100 µM (inactive) | > 100 | > 100 µM (inactive) | > 100 µM (inactive) | > 100 µM (inactive) | > 100 µM (inactive) | > 100 µM (inactive) | > 100 µM (inactive) | > 100 µM (inactive) | > 100 µM (inactive) | > 100 µM (inactive) | > 100 µM (inactive) | > 100 µM (inactive) | > 100 µM (inactive) | > 100 µM (inactive) | > 100 µM (inactive) | > 100 µM (inactive) | > 100 µM (inactive)
CC(=O)c1[nH]c(Nc2ccc(C)cc2)c(C(=S)Nc2ccccc2)c1N | 13.2 µM (inactive) | 16.8 µM (inactive) | 18.3 | 16.4 µM (inactive) | 17.1 µM (inactive) | 16 µM (inactive) | 17.1 µM (inactive) | 13 µM (inactive) | 15 µM (inactive) | 19.5 µM (inactive) | 15.9 µM (inactive) | 29.2 µM (inactive) | 18.8 µM (inactive) | 15.5 µM (inactive) | 18.5 µM (inactive) | 18.8 µM (inactive) | 25.8 µM (inactive) | 17.8 µM (inactive) | 14.5 µM (inactive)
COc1ccc(/N=N/C(=O)NC(CC(C)C)C(N)=O)cc1 (stereo not given) | 5.41 µM (inactive) | > 100 µM (inactive) | > 24.4 | 9.48 µM (inactive) | > 28.9 µM (inactive) | 30.2 µM (inactive) | > 100 µM (inactive) | > 31.6 µM (inactive) | 28.2 µM (inactive) | > 69 µM (inactive) | 5.27 µM (inactive) | 22.9 µM (inactive) | > 31.6 µM (inactive) | > 100 µM (inactive) | 23.6 µM (inactive) | > 31.1 µM (inactive) | > 100 µM (inactive) | > 100 µM (inactive) | > 100 µM (inactive)
CC12ON(P(=O)(c3ccccc3)c3ccccc3)C(C)(c3ccccc31)c1ccccc12 | > 100 µM (inactive) | > 100 µM (inactive) | > 100 | > 100 µM (inactive) | > 100 µM (inactive) | > 100 µM (inactive) | > 100 µM (inactive) | > 100 µM (inactive) | > 100 µM (inactive) | > 100 µM (inactive) | > 100 µM (inactive) | > 100 µM (inactive) | > 100 µM (inactive) | > 100 µM (inactive) | > 100 µM (inactive) | > 100 µM (inactive) | > 100 µM (inactive) | > 100 µM (inactive) | > 100 µM (inactive)
